Values of other authors in publication PMC7357169, “Blinded, Multicenter Evaluation of Drug-induced Changes in Contractility Using Human-induced Pluripotent Stem Cell-derived Cardiomyocytes” (Toxicological Sciences, 2020).
Read-outs that look alike come from different tables or passages of the source.

Assays:
[1] = system: heart; parameters: method as in Refs column of Supplementary Table 1; details: Refs of Supplementary Table 1; cited from earlier work
[2] = cited from earlier work; for FTPC: free therapeutic plasma concentration, Refs of Supplementary Table 1; for FPTC (free plasma therapeutic concentration): ref Supplementary Table 1
[3] = system: cardiac contractility; details: cited from earlier work; for EC50 / Expected effect on contractility in isolated cardiomyocytes/heart muscles / IC50: isolated cardiomyocytes/heart muscles, Refs of Supplementary Table 1; for EC50: read-out: Expected effect on contractility in isolated cardiomyocytes/heart muscles, EC50; for IC50: negative inotropy, read-out: Expected effect on contractility in isolated cardiomyocytes/heart muscles, IC50
[4] = heart muscle, at 500 µM, ref (Kirby et al. 1992), (Baudet et al. 1993)

| Compound | Expected cardiac effects in vivo [1] | FTPC [2] | FPTC (free plasma therapeutic concentration) [2] | Expected effect on contractility in isolated cardiomyocytes/heart muscles [3] | other results |
| --- | --- | --- | --- | --- | --- |
| CN(C)C/C=C(/c1ccc(Br)cc1)c1cccnc1 [Zimelidine] | None (at ther. doses), QT and QRS widening at high doses |  |  |  |  |
| CC(C)(C)NCC(O)c1cc(O)cc(O)c1 (stereo not shown) [Terbutaline] |  | 1.3 µM | 1.3 µM |  | EC50 [3]: 3000 nM |
| Clc1cccc(Cl)c1N=C1NCCN1 [Clonidine] | NI, NC | 0.002 to 0.004 µM | 0.002 to 0.004 µM | None |  |
| COC(=O)C1=C(C)NC(C)=C([N+](=O)[O-])C1c1ccccc1C(F)(F)F (stereo not shown) [Bay K 8644] | PI (indirect NC because of RR increase) |  |  | PI, NL |  |
| C/C=C(/C)C(=O)O[C@H]1C(C)=C2[C@H]([C@@H]1OC(=O)CCCCCCC)[C@@](C)(OC(C)=O)C[C@H](OC(=O)CCC)[C@@]1(O)[C@H]2OC(=O)[C@@]1(C)O [thapsigargin] |  |  |  |  | NI [3, 4]: ~50%; NL [3, 4]: ~20%; NI ([3]; isolated myocytes, at 0.1 µM, ref (Kirby et al. 1992), (Baudet et al. 1993)): ~90% |
| COc1ccc(CCN(C)CCCC(C#N)(c2ccc(OC)c(OC)c2)C(C)C)cc1OC (stereo not shown) [Verapamil] | NI (direct) partially masked by adrenergic activation (indirect), NC or none, ND (direct) |  |  |  | IC50 [3]: 100 nM |
| CNC(=O)c1cc(Oc2ccc(NC(=O)Nc3ccc(Cl)c(C(F)(F)F)c3)cc2)ccn1 [Sorafenib] | None or NI at high doses, delayed cardiotox | 0.03 µM | 0.03 µM | None (feline and canine CM, but cell death), NI (rat heart) |  |
| COc1ccc(C(=O)N2CCCc3cc(C4=NNC(=O)SC4C)ccc32)cc1OC (stereo not shown) [EMD 57033] |  | 16 µM |  | PI, NL | EC50 [3]: ~5000 nM |
| CC(C)[C@@]1(O)[C@@H](OC(=O)c2ccc[nH]2)[C@@]2(O)[C@@]3(C)C[C@]4(O)O[C@@]5([C@H](O)[C@@H](C)CC[C@]35O)[C@@]2(O)[C@@]14C [ryanodine] |  |  |  | NI, NCl, species dependent biphasic | IC50 [3]: ~10 nM |
| CC(=O)Nc1ccc(O)cc1 [Paracetamol] | None | 50 µM | 50 µM | None |  |
| CCC(C)n1ncn(-c2ccc(N3CCN(c4ccc(OCC5COC(Cn6cncn6)(c6ccc(Cl)cc6Cl)O5)cc4)CC3)cc2)c1=O (stereo not shown) [Itraconazole] |  | 0.00086 µM | 0.00086 µM |  | NI ([3]; at 0.3 µM, rabbit heart, ref (Head et al. 2015), (Qu et al. 2013), (Bellmann 2007)): -30% |
| Cc1ccc(N(CC2=NCCN2)c2cccc(O)c2)cc1 [Phentolamine] |  |  |  |  | free plasma concentration in patients ([2]; patients, ref Wallis et al., 2015): approximately 2.5 µM; inotropic effect at concentrations above 10 µM ([3]; above 10 µM, via modulation of fast sodium and L-type calcium channels, ref Rosen et al., 1971, Sada, 1978): negative inotropy; inotropic effect at free plasma concentrations ([3]; approximately 2.5 µM in patients, ref Wallis et al., 2015): neutral inotrope; IC50 [3]: ~20000 nM |
| C[C@H](CS)C(=O)N1CCC[C@H]1C(=O)O [Captopril] | None | 1 to 2 µM | 1 to 2 µM | None |  |
| CC(=O)Oc1ccccc1C(=O)O [Acetylsalicylic acid] | None | 0.3 to 2 µM | 0.3 to 2 µM | None |  |
| O=C(NCC1CCCCN1)c1cc(OCC(F)(F)F)ccc1OCC(F)(F)F (stereo not shown) [Flecainide] |  |  |  |  | IC50 [3]: 300 nM |
| CC(C)NCC(O)COc1ccc(CC(N)=O)cc1 (stereo not shown) [Atenolol] | NI, NC, ND |  |  | None (in absence of agonist) until 3000 µM (in contrast to e.g. propranolol) |  |
| CCCc1nn(C)c2c(=O)[nH]c(-c3cc(S(=O)(=O)N4CCN(C)CC4)ccc3OCC)nc12 [Sildenafil] | None or PI+PC (indirect) |  |  | None |  |
| Cn1c(=O)c2c(ncn2C)n(C)c1=O [caffeine] |  |  |  | Small PI and PL at 100 µM, transient large PI, NL at >10 mM |  |
